One data set addresses T1, CCR-5 (Homo sapiens, UniProt P51681).
T1 construct: expressed in transfected cells; host or cells: L1.2 cells (CCR-5/L1.2 transfectants), membranes
Briefly: 125I-gp120/sCD4/CCR-5 receptor binding assay. The note with it: membranes from CCR-5/L 1.2 cells, 3 nM sCD4, 0.1 nM 125I-gp120 (HIV-1 JR-FL); read-out: IC50 for inhibition of binding of sCD-4/GP-120 to CCR-5. Here is the method: CCR-5 Receptor Binding Assay The compounds of the present invention were evaluated using the following CCR-5 receptor binding assay. The ^125I-gp120/sCD4/CCR-5 binding assay was carried out similarly as described in Wu et al., Nature, 1996;384:179-183. Briefly, the envelope gp120 protein derived from HIV-1 JR-FL (Trkola et al., Nature, 1996;384:184-186), an M-tropic strain, was iodinated using solid phase lactoperoxidase to a specific activity of 20 μCi/μg. For each binding reaction (in a final volume of 100 μL binding buffer [50 mM HEPES, pH 7.5, 1 mM CaCl2, 5 mM MgCl2, and 0.5% BSA]), 25 μL (2.5 μg) of membranes prepared from CCR-5/L 1.2 cells were mixed with 25 μL (3 nM) sCD4, followed by 25 μL (0.1 nM) radio-labeled gp120 in the presence or absence of 25 μL compound dissolved in DMSO (final concentration of DMSO 0.5%). The reactions were incubated at room temperature for 45 to 60 minutes and stopped by transferring the mixture to GFB filter plates, which were then washed 3 to 4 times with binding buffer containing 0.5 M NaCl. The plates were dried and MicroScint scintillation fluid was added before counting. […] The compounds of Examples 56 and 66 had IC50s of about […]. […] Preferred compounds can inhibit the binding of sCD-4/GP-120 to CCR-5 with IC50s of about 10 μM to about 100 μM or about 1 nM to about 10 μM

T1 sequence (P51681 whole entry): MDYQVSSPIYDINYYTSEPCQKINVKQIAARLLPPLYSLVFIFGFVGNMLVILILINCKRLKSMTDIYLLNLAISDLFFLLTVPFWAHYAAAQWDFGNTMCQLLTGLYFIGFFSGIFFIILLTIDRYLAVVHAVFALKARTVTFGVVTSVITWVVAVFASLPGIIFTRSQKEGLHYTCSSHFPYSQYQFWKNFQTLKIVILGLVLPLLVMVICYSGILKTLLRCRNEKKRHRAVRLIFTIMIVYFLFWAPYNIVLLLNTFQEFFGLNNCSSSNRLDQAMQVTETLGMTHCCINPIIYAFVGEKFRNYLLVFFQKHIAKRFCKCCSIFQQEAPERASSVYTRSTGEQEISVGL

The compound `Cc1[nH]c2ccc(OC(C)C(C)N3CCCC3)cc2c1C(=O)OCc1ccccc1` (stereo not shown) [Example 70, 2-Methyl-5-(1-methyl-2-pyrrolidin-1-yl-propoxy)-1H-indole-3-carboxylic acid benzyl ester] had a melting point of 94 to 98 °C. Further, the IC50 on CCR-5 amounted to 5.52 ± 1.1 µM.

In turn, `CCN(CC)CCc1ccc2[nH]c(C)c(C(=O)OCc3ccccc3)c2c1.Cl` [Example 72, 5-(2-Diethylamino-ethyl)-2-methyl-1H-indole-3-carboxylic acid benzyl ester hydrochloride] displayed a melting point of 130 to 134 °C. Moreover, on CCR-5, the IC50 is 1.93 ± 0.32 µM.

The values are drawn from patent publication US6951848B2, “Functionalized heterocycles as modulators of chemokine receptor function and methods of use therefor” (Millennium Pharmaceuticals, Inc.,, priority 2001, dated 2005).
